From EP0212822A1, “A composition containing a plant growth regulator and an alkanol and a method of using the same” (ICI AMERICAS INC., priority 1985, dated 1987)
“Also recorded” adds a separate entry of the source.

How the values were obtained:
[1] = system: Liquidambar styraciflua (Sweetgum); test: Trunk injection of PGR in ethanol or methanol, ratings; type: in vivo
Method: The examples which follow exemplify the improvements obtained by this invention. However, these examples are not intended to limit the scope of the invention. In Examples 1-41, the subject trees were injected at a distance approximately one foot from the soil line by drilling 7/32 inch diameter holes to a 2 inch depth at a 30-45° angle tangential to the trunk with a pressure injector (150 psi) purchased from the Asplundh Tree Expert Co., Company No. 346-3502. The results are expressed in terms of Retardation and Uniformity Ratings. The Retardation rating scale is as follows: • 0 = no retardataion • 1 = 1-20% retardation • 2 = 21-40% retardation • 3 = 41-60% retardation • 4 = 61-80% retardation • 5 = 81-100% retardation
The Uniformity Rating is a measure of the consistency of response to the treatment between different branches of the tree. The Uniformity scale employed is as follows: • 0 = no effect from PGR • 1 = poor • 2 = fair • 3 = acceptable • 4 = very good • 5 = excellent
20 grams of PGR were dissolved in 1 liter of solvent at room temperature and stirred until the solution was clear, approximately 20 minutes. The solution was injected into the trunk of Liquidambar styraciflua (Sweetgum).

Vicia faba (Broadbean) = test: Stem injection with hypodermic syringe, growth as % of control; type: in vivo; settings: 0.1 ml injected, averaged over four replications
Method: 10 grams of PGR were dissolved in 1 liter of solvent at room temperature and stirred until the solution was clean, approximately 20 minutes. 0.1 ml of the solution was injected, […] above the soil level, in Vicia faba (Broadbean) with a hypodermic syringe.

[2] = Adsorption of tracer dyes to sawdust; type: physicochemical, Birch and Ash
Method: 0.1 g of methylene blue and 0.1 g of acid fuschin were each dissolved in 1 liter of methanol (Me), […] methanol/water (Me/Wa) and water (Wa). 2 g (fresh weight) of sawdust taken from the active conductive tissues of Birch and Ash were combined with 20 ml of solution. The dye solutions were shaken overnight. The supernatant was decanted and the quantity of dye remaining in solution estimated by spectroscopy.

[3] = week 2, 20 grams of PGR in 1 liter Ethanol
[4] = week 2, 20 grams of PGR in 1 liter Methanol
[5] = week 6, 20 grams of PGR in 1 liter Ethanol
[6] = week 6, 20 grams of PGR in 1 liter Methanol
[7] = 14 days, 10 grams of PGR in 1 liter Ethanol
[8] = 14 days, 10 grams of PGR in 1 liter Methanol
[9] = 21 days, 10 grams of PGR in 1 liter Ethanol
[10] = 21 days, 10 grams of PGR in 1 liter Methanol

binding of dye to wood ([2]; methanol as solvent) | binding of dye to wood ([2]; methanol as solvent, listed as Methylene blue) | binding of dye to wood ([2]; water as solvent) | binding of dye to wood ([2]; water as solvent, listed as Methylene blue) | SMILES | Retardation/ Uniformity Ratings at Indicated Week After Treatment [1, 3] | Retardation/ Uniformity Ratings at Indicated Week After Treatment [1, 4] | Retardation/ Uniformity Ratings at Indicated Week After Treatment [1, 5] | Retardation/ Uniformity Ratings at Indicated Week After Treatment [1, 6] | Growth (% Control) At Indicated Days After Treatment (Vicia faba (Broadbean); [7]) [% Control] | Growth (% Control) At Indicated Days After Treatment (Vicia faba (Broadbean); [8]) [% Control] | Growth (% Control) At Indicated Days After Treatment (Vicia faba (Broadbean); [9]) [% Control] | Growth (% Control) At Indicated Days After Treatment (Vicia faba (Broadbean); [10]) [% Control] | binding of dye to wood ([2]; either solvent (water and methanol))
– | – | – | – | CC(C)C(O)(c1ccc(OC(F)(F)F)cc1)c1cncnc1 (stereo not drawn) [PGR-2] | 1 (1 = 1-20% retardation) | 1 (1 = 1-20% retardation) | 3 (3 = 41-60% retardation) | 3 (3 = 41-60% retardation) | 6 | 10 | 7 | 10 | –
– | – | – | – | CC(C)(C)C(O)C(Cc1ccc(Cl)cc1)n1cncn1 (stereo not drawn) [PGR-1] | 1 (1 = 1-20% retardation) | 1 (1 = 1-20% retardation) | 3 (3 = 41-60% retardation) | 4 (4 = 61-80% retardation) | 13 | 12 | 18 | 17 | –
– | – | – | – | CC1=CC(=C(c2ccc(N)c(S(=O)(=O)O)c2)c2ccc(N)c(S(=O)(=O)O)c2)C=C(S(=O)(=O)O)C1=N [acid fuschin] | – | – | – | – | – | – | – | – | binds only partially; also recorded: binds weakly
binds weakly | weakly | binding almost completely | binds strongly | CN(C)c1ccc2nc3ccc(=[N+](C)C)cc-3sc2c1 [methylene blue] | – | – | – | – | – | – | – | – | –
